pEC50, pIC50: −log10 of the molar value. Like-named read-outs stand apart in the source and are kept apart here.
How the values were obtained:
SKBR3 cells = assay: SKBR3 Cell Viability Assay (CellTiter Glo); assay type: cell-based; details: CellTiter Glo luminescence, read-out: MCL-1 CV SKBR3 EC50
Outline: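 Viability read as CellTiter Glo luminescence after 72 h of compound exposure at 37° C./5% CO2, using 6,000 SKBR3 cells per well in McCoy 5A with 10% FBS. Percent inhibition scaled between DMSO wells and 10 μM puromycin wells.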

[1] = molecular target: MCL-1/Bim interaction (recombinant human MCL-1 protein, residues 171-327; biotinylated human Bim peptide, residues 51-76) (Homo sapiens (Human), UniProt Q07820); assay: MCL-1/Bim Binding AlphaLISA Assay; details: 0.0625 nM 6xHis-Mcl-1 (171-327), 0.0625 nM biotinylated-Bim peptide
Outline: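 Protein 0.0625 nM + cpd, 1 h; add biotin-Bim 0.0625 nM, 2 h; acceptor beads 1 h; donor beads 1 h; AlphaScreen read. Buffer 20 mM Hepes pH 7.5, 150 mM NaCl, 1 mM DTT.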

Sequence of MCL-1/Bim interaction (recombinant human MCL-1 protein, residues 171-327; biotinylated human Bim peptide, residues 51-76) (Q07820 171-327): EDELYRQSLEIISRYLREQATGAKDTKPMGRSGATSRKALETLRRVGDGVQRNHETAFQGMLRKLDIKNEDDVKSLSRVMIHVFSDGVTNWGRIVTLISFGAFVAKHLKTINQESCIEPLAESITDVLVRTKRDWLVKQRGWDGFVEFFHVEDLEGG

## COc1cn(C)cc1C(=O)N[S@@]1(=O)=NC(=O)c2ccc3c(c2)N(C[C@@H]2CC[C@H]2[C@@H](O)/C=C/C[C@H](C)[C@H]1C)C[C@@]1(CCCc2cc(Cl)ccc21)CO3 [Example 359]
SKBR3 cells; 72 hours
  pEC50: 7.72
[1]
  pIC50: 10.42

## CO[C@H]1/C=C/C[C@H](C)C[S@@](=O)(NC(=O)N[C@H]2C[C@H](OC(=O)N(C)C)C2)=NC(=O)c2ccc3c(c2)N(C[C@@H]2CC[C@H]21)C[C@@]1(CCCc2cc(Cl)ccc21)CO3 [Example 360]
SKBR3 cells; Homo sapiens, SK-BR-3, 72 h
  pEC50: 6.86
[1]
  pIC50: 10.28

## CO[C@H]1/C=C/C[C@H](C)C[S@@](=O)(NC(=O)NC23CC(OC)(C2)C3)=NC(=O)c2ccc3c(c2)N(C[C@@H]2CC[C@H]21)C[C@@]1(CCCc2cc(Cl)ccc21)CO3 [Example 361]
SKBR3 cells; Homo sapiens, SK-BR-3, 72 h
  pEC50: 7.36
[1]
  pIC50: 10.26

## COC1CN(C(=O)N[S@@]2(=O)=NC(=O)c3ccc4c(c3)N(C[C@@H]3CC[C@H]3[C@@H](OC)/C=C/C[C@H](C)C2)C[C@@]2(CCCc3cc(Cl)ccc32)CO4)C1 [Example 362]
SKBR3 cells; Homo sapiens, SK-BR-3, 72 h
  pEC50: 7.76
[1]
  pIC50: 10.62

## CO[C@H]1/C=C/C[C@H](C)C[S@@](=O)(NC(=O)N2CC(C)(OC)C2)=NC(=O)c2ccc3c(c2)N(C[C@@H]2CC[C@H]21)C[C@@]1(CCCc2cc(Cl)ccc21)CO3 [Example 363]
SKBR3 cells; Homo sapiens, SK-BR-3, 72 h
  pEC50: 7.33
[1]
  pIC50: 10.38

## CO[C@H]1/C=C/C[C@H](C)C[S@@](=O)(NC(=O)N[C@@H]2C[C@H]2F)=NC(=O)c2ccc3c(c2)N(C[C@@H]2CC[C@H]21)C[C@@]1(CCCc2cc(Cl)ccc21)CO3 [Example 364]
SKBR3 cells; Homo sapiens, SK-BR-3, 72 h
  pEC50: 6.59
[1]
  pIC50: 10.19

## COc1nn(C)cc1C(=O)N[S@@]1(=O)=NC(=O)c2ccc3c(c2)N(C[C@@H]2CC[C@H]2[C@@H](OCCN2CCOCC2)/C=C/C[C@H](C)C1)C[C@@]1(CCCc2cc(Cl)ccc21)CO3 [Example 366]
SKBR3 cells; Homo sapiens, SK-BR-3, 72 h
  pEC50: 7.27
[1]
  pIC50: 10.07

## CCO[C@H]1/C=C/C[C@H](C)C[S@@](=O)(NC(=O)c2cn(C)nc2OC)=NC(=O)c2ccc3c(c2)N(C[C@@H]2CC[C@H]21)C[C@@]1(CCCc2cc(Cl)ccc21)CO3 [Example 367]
SKBR3 cells; Homo sapiens, SK-BR-3, 72 h
  pEC50: 7.00
[1]
  pIC50: 10.20

## COc1nn(C)cc1C(=O)N[S@@]1(=O)=NC(=O)c2ccc3c(c2)N(C[C@@H]2CC[C@H]2[C@@H](OC)/C=C/[C@H](O)[C@H](C)[C@H]1C)C[C@@]1(CCCc2cc(Cl)ccc21)CO3 [Example 374]
SKBR3 cells; Homo sapiens, SK-BR-3, 72 h
  pEC50: 7.32
[1]
  pIC50: 10.24

## COC1CN(C(=O)N[S@@]2(=O)=NC(=O)c3ccc4c(c3)N(C[C@@H]3CC[C@H]3[C@@H](OC)/C=C/[C@H](OC)[C@H](C)C2)C[C@@]2(CCCc3cc(Cl)ccc32)CO4)C1 [Example 375]
SKBR3 cells; Homo sapiens, SK-BR-3, 72 h
  pEC50: 7.65
[1]
  pIC50: 10.34

## COCCOCCO[C@H]1/C=C/[C@H](OC)[C@@H]2CC[C@H]2CN2C[C@@]3(CCCc4cc(Cl)ccc43)COc3ccc(cc32)C(=O)N=[S@](=O)(NC(=O)c2cn(C)nc2OC)C[C@H]1C [Example 376]
SKBR3 cells; Homo sapiens, SK-BR-3, 72 h
  pEC50: 7.57
[1]
  pIC50: 10.51

## COc1nn(C)cc1C(=O)N[S@@]1(=O)=NC(=O)c2ccc3c(c2)N(C[C@@H]2CC[C@H]2[C@@H](OC)/C=C/[C@H](S(=O)(=O)c2ccc(C)cc2)[C@H](C)C1)C[C@@]1(CCCc2cc(Cl)ccc21)CO3 [Example 377]
SKBR3 cells; 72 hours
  pEC50: 7.47
[1]
  pIC50: 9.97

## COC1CN(c2nn(C)cc2C(=O)N[S@@]2(=O)=NC(=O)c3ccc4c(c3)N(C[C@@H]3CC[C@H]3[C@@H](OC)/C=C/C[C@H](C)C2)C[C@@]2(CCCc3cc(Cl)ccc32)CO4)C1 [Example 379]
SKBR3 cells; Homo sapiens, SK-BR-3, 72 h
  pEC50: 5.78
[1]
  pIC50: 9.08

## COC1CCN(c2nn(C)cc2C(=O)N[S@@]2(=O)=NC(=O)c3ccc4c(c3)N(C[C@@H]3CC[C@H]3[C@@H](OC)/C=C/C[C@H](C)C2)C[C@@]2(CCCc3cc(Cl)ccc32)CO4)CC1 [Example 380]
SKBR3 cells; Homo sapiens, SK-BR-3, 72 h
  pEC50: 5.47
[1]
  pIC50: 8.34

## COc1nn(C)cc1C(=O)N[S@@]1(=O)=NC(=O)c2ccc3c(c2)N(C[C@@H]2CC[C@H]2[C@@H](OC(=O)CC(C)C)/C=C/C[C@H](C)C1)C[C@@]1(CCCc2cc(Cl)ccc21)CO3 [Example 381]
SKBR3 cells; Homo sapiens, SK-BR-3, 72 h
  pEC50: 6.27
[1]
  pIC50: 9.11

## CO[C@H]1/C=C/C[C@H](C)C[S@@](=O)(NC(=O)N2CCN(C(=O)OC(C)(C)C)[C@H](C)C2)=NC(=O)c2ccc3c(c2)N(C[C@@H]2CC[C@H]21)C[C@@]1(CCCc2cc(Cl)ccc21)CO3 [Example 382]
SKBR3 cells; Homo sapiens, SK-BR-3, 72 h
  pEC50: 6.25
[1]
  pIC50: 8.85

## COC(=O)c1ccn2c1CN(C(=O)N[S@@]1(=O)=NC(=O)c3ccc4c(c3)N(C[C@@H]3CC[C@H]3[C@@H](OC)/C=C/C[C@H](C)C1)C[C@@]1(CCCc3cc(Cl)ccc31)CO4)CC2 [Example 383]
SKBR3 cells; Homo sapiens, SK-BR-3, 72 h
  pEC50: 5.92
[1]
  pIC50: 9.18

## COc1nn(C)cc1C(=O)N[S@@]1(=O)=NC(=O)c2ccc3c(c2)N(C[C@@H]2CC[C@H]2[C@@H](OC(=O)OC(C)C)/C=C/C[C@H](C)C1)C[C@@]1(CCCc2cc(Cl)ccc21)CO3 [Example 384]
SKBR3 cells; Homo sapiens, SK-BR-3, 72 h
  pEC50: 6.81
[1]
  pIC50: 9.47

Source: patent US10703733B2, “MCL-1 inhibitors” (Gilead Sciences, Inc., priority 2018, dated 2020)
